According to PubChem BioAssay AID256 (DTP/NCI, 2004):
“And” between values parts separate entries of the source, which are not always exact repeats. Equal entries are not always repeated. Inconclusive results and toxic doses are left out.

Tested on: CD2F1 mice, L1210 leukemia ip, survival T/C
Assay: NCI In Vivo Anticancer Drug Screen. Data for tumor model L1210 Leukemia (intraperitoneal) in CD2F1 (CDF1) mice
Conditions: higher = longer survival
Method in brief: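 Transplantable tumor in mice; compound-treated vs vehicle-treated groups. Read-out = treated/control ratio of the measured endpoint.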

[1] = endpoint: mean survival time, dose: 100.0 mg/kg/injection, schedule: Q01DX001 (ip), vehicle: saline with Tween-80
[2] = endpoint: mean survival time, dose: 200.0 mg/kg/injection, schedule: Q01DX001 (ip), vehicle: saline with Tween-80
[3] = endpoint: mean survival time, dose: 400.0 mg/kg/injection, schedule: Q01DX001 (ip), vehicle: saline with Tween-80
[4] = endpoint: mean survival time, dose: 100.0 mg/kg/injection, schedule: Q04DX003 (ip), vehicle: saline with Tween-80
[5] = endpoint: mean survival time, dose: 200.0 mg/kg/injection, schedule: Q04DX003 (ip), vehicle: saline with Tween-80
[6] = endpoint: mean survival time, dose: 400.0 mg/kg/injection, schedule: Q04DX003 (ip), vehicle: saline with Tween-80
[7] = endpoint: mean survival time, dose: 100.0 mg/kg/injection, schedule: Q01DX009 (ip), vehicle: saline with Tween-80
[8] = endpoint: mean survival time, dose: 200.0 mg/kg/injection, schedule: Q01DX009 (ip), vehicle: saline with Tween-80
[9] = endpoint: mean survival time, dose: 400.0 mg/kg/injection, schedule: Q01DX009 (ip), vehicle: saline with Tween-80

## CCCCNCC(=O)O[C@]1(CC)C(=O)OCc2c1cc1n(c2=O)Cc2cc3ccccc3nc2-1
endpoint: median survival time, dose: 7.5 mg/kg/injection, schedule: Q04DX002 (ip), vehicle: saline
  T/C: 109 % of control
endpoint: median survival time, dose: 7.5 mg/kg/injection, schedule: Q04HX004 (iv), vehicle: dextrose
  T/C: 150 % of control
endpoint: median survival time, dose: 7.5 mg/kg/injection, schedule: Q04HX004 (iv), vehicle: other
  T/C: 158 % of control
endpoint: median survival time, dose: 15.0 mg/kg/injection, schedule: Q04DX002 (ip), vehicle: saline
  T/C: 117 % of control and 124 % of control
endpoint: median survival time, dose: 15.0 mg/kg/injection, schedule: Q04HX004 (iv), vehicle: dextrose
  T/C: 172 % of control
endpoint: median survival time, dose: 15.0 mg/kg/injection, schedule: Q04HX004 (iv), vehicle: other
  T/C: 186 % of control
endpoint: median survival time, dose: 30.0 mg/kg/injection, schedule: Q04DX002 (ip), vehicle: saline
  T/C: 158 % of control
endpoint: median survival time, dose: 30.0 mg/kg/injection, schedule: Q04HX004 (iv), vehicle: dextrose
  T/C: 218 % of control
endpoint: median survival time, dose: 30.0 mg/kg/injection, schedule: Q04HX004 (iv), vehicle: other
  T/C: 235 % of control
endpoint: median survival time, dose: 40.0 mg/kg/injection, schedule: Q04HX004 (iv), vehicle: other
  T/C: 247 % of control
endpoint: median survival time, dose: 60.0 mg/kg/injection, schedule: Q04DX002 (ip), vehicle: saline
  T/C: 195 % of control and 212 % of control

## CN(C)C(=S)Oc1ccc(S(=O)(=O)F)cc1F
endpoint: mean survival time, dose: 100.0 mg/kg/injection, schedule: Q04DX002 (ip), vehicle: saline with Tween-80
  T/C: 93 % of control
endpoint: mean survival time, dose: 200.0 mg/kg/injection, schedule: Q04DX002 (ip), vehicle: saline with Tween-80
  T/C: 93 % of control
endpoint: mean survival time, dose: 400.0 mg/kg/injection, schedule: Q04DX002 (ip), vehicle: saline with Tween-80
  T/C: 104 % of control

## CC(=O)Nc1nc(C)c(CC/C=C/c2ccc([N+](=O)[O-])cc2)c(Cl)n1
[1]
  T/C: 94 % of control
[2]
  T/C: 89 % of control
[3]
  T/C: 89 % of control

## CC1CCCCC1C(C)(C#N)Nc1ccccc1 (stereo unspecified)
[4]
  T/C: 103 % of control
[5]
  T/C: 104 % of control
[6]
  T/C: 97 % of control

## CCCCCCCCCCCCS(=O)(=O)O
[4]
  T/C: 119 % of control
[5]
  T/C: 119 % of control

## [I][Pt+2][I].[NH-]CC1CCCC[N-]1 (stereo unspecified)
endpoint: mean survival time, dose: 3.13 mg/kg/injection, schedule: Q04DX003 (ip), vehicle: distilled water + Tween-80
  T/C: 98 % of control
endpoint: mean survival time, dose: 6.25 mg/kg/injection, schedule: Q04DX003 (ip), vehicle: distilled water + Tween-80
  T/C: 95 % of control
endpoint: mean survival time, dose: 12.5 mg/kg/injection, schedule: Q04DX003 (ip), vehicle: distilled water + Tween-80
  T/C: 95 % of control
endpoint: mean survival time, dose: 25.0 mg/kg/injection, schedule: Q04DX003 (ip), vehicle: distilled water + Tween-80
  T/C: 104 % of control
endpoint: mean survival time, dose: 50.0 mg/kg/injection, schedule: Q04DX003 (ip), vehicle: distilled water + Tween-80
  T/C: 98 % of control

## OCCOCC(F)(F)F
endpoint: mean survival time, dose: 6.25 mg/kg/injection, schedule: Q01DX009 (ip), vehicle: saline with Tween-80
  T/C: 100 % of control
endpoint: mean survival time, dose: 12.5 mg/kg/injection, schedule: Q01DX009 (ip), vehicle: saline with Tween-80
  T/C: 90 % of control and 112 % of control
endpoint: mean survival time, dose: 25.0 mg/kg/injection, schedule: Q01DX009 (ip), vehicle: saline with Tween-80
  T/C: 95 % of control and 102 % of control
endpoint: mean survival time, dose: 50.0 mg/kg/injection, schedule: Q01DX009 (ip), vehicle: saline with Tween-80
  T/C: 94 % of control and 100 % of control
[7]
  T/C: 94 % of control and 100 % of control
[8]
  T/C: 94 % of control and 110 % of control

## CCOC(=O)c1nc2c(n(O)c1=N)CCC/C2=N\O
endpoint: mean survival time, dose: 100.0 mg/kg/injection, schedule: Q04DX003 (ip), vehicle: Klucel (hydroxypropylcellulose) (HPC)
  T/C: 95 % of control
endpoint: mean survival time, dose: 200.0 mg/kg/injection, schedule: Q04DX003 (ip), vehicle: Klucel (hydroxypropylcellulose) (HPC)
  T/C: 102 % of control
endpoint: mean survival time, dose: 400.0 mg/kg/injection, schedule: Q04DX003 (ip), vehicle: Klucel (hydroxypropylcellulose) (HPC)
  T/C: 91 % of control

## O=[N+]([O-])c1ccccc1-c1cc(-c2ccccc2)nn1-c1ccccc1
[7]
  T/C: 102 % of control
[4]
  T/C: 98 % of control
[8]
  T/C: 103 % of control
[5]
  T/C: 98 % of control
[9]
  T/C: 97 % of control
[6]
  T/C: 95 % of control

## O=C1c2ccccc2C(=O)N1CO
[1]
  T/C: 108 % of control
[7]
  T/C: 101 % of control
[2]
  T/C: 106 % of control
[8]
  T/C: 97 % of control
[3]
  T/C: 104 % of control
[9]
  T/C: 101 % of control

## C=CS(=O)(=O)CCc1ccccc1
endpoint: mean survival time, dose: 50.0 mg/kg/injection, schedule: Q01DX001 (ip), vehicle: Klucel (hydroxypropylcellulose) (HPC)
  T/C: 101 % of control
endpoint: mean survival time, dose: 100.0 mg/kg/injection, schedule: Q01DX001 (ip), vehicle: Klucel (hydroxypropylcellulose) (HPC)
  T/C: 111 % of control
endpoint: mean survival time, dose: 200.0 mg/kg/injection, schedule: Q01DX001 (ip), vehicle: Klucel (hydroxypropylcellulose) (HPC)
  T/C: 108 % of control
